Data from patent publication US7183291B2 (Council of Scientific and Industrial Research, priority 1999, dated 2007).
Where “and” joins values, the source holds several entries; their conditions need not be identical. Identical values can stand only once.

Columns and labels:
[1] = system: P. cynomolgi B gametocytes; test: Gametocytocidal test: infectivity of gametocytes from treated P. cynomolgi infected Rhesus monkeys to An. stephensi mosquitoes; assay type: in vivo
Method: For the gametocytocidal test, batches of 3–4 day old An. Stephensi were allowed to feed on P. cynomolgi infected Rhesus monkeys at appropriate gametocytaemia level. […] […] Mosquitoes were maintained as 26±1° C. under optimal insectary conditions. The infectivity rate and the oocyst counts were recorded on day 8. Mosquitoes were further maintained in the insectary to record the formation of sporozoites and the absence of sporozoites in some of the batches was also ensured by inoculation of mosquito homogenates into native monkeys.

[2] = Methaemoglobin levels in Beagle dogs after 7-day oral treatment
Method: Colony bred beagle dogs were maintained in the kennel house of the Institute and fed with a standard diet.
Treatment was administered once daily for seven doses (day 0–6), the day of the first dose being day 0. […] 5 ml. blood was collected from beagle dogs on day 0, 3, 7, 13 and 25 using potassium-oxalate crystals as anticoagulant. All the estimations/tests were conducted on the same day of collection of blood. Methaemoglobin was assayed by the method of Evelyn and Malloy (1938, J. Biol. Chem., 126, 655–662).

normal erythrocytes = test: Reduced glutathione (GSH) in normal human erythrocytes after 3 h incubation; assay type: cell-based
Description: (§1) Drug induced haemolysis is a serious complication in persons deficient in G-6-PD enzyme. The presence of reduced glutathione (GSH) in erythrocytes control the level of oxidative metabolites. Therefore, drugs, which cause lesser oxidation of GSH level are safe. […] G-6-PD deficiency was detected by the fluorescent spot screening test and confirmed by the enzyme assay method. Heparinised blood samples were collected from each individual and after centrifugation, the packed cells were washed three times with cold saline. […] GSH levels were estimated by the method of Bentler et al [Improved Method for the Determination of Blood Glutathione, J. Lab.

[3] = system: G-6-PD deficient erythrocytes; test: Reduced glutathione (GSH) in G-6-PD deficient human erythrocytes after 3 h incubation; assay type: cell-based; conditions: 25 and 50 μg/ml of PQ and equivalent doses, P<0.001
Description: as §1

rodent malaria [4] = conditions: in vivo; cited from earlier work
rodent malaria [5] = conditions: in vivo; cited from earlier work; remark: listed apart in the source
rodent malaria [6] = conditions: given directly to the insect; cited from earlier work
[7] = oral labelled primaquine; cited from earlier work
[8] = 1.00 mg/kg at 0 hr, feeding +24 hr
[9] = 1.00 mg/kg at 0 hr, feeding +48 hr
[10] = 1.00 mg/kg at 0 hr, feeding −1 hr (pre-treatment)
[11] = 3.16 mg/kg at 0 hr, feeding +24 hr
[12] = 3.16 mg/kg at 0 hr, feeding −1 hr (pre-treatment)

## COc1cc(NC(C)CCCN)c2ncccc2c1 (stereo not drawn) [Primaquine, 8-(4-amino-1-methylbutylamino)-6-methoxy quinoline, reference compound]
[1]; 1.00 mg/kg
  loss of infectivity: ~98%
[1]; 1.00 mg/kg at 0 hr, feeding +5 hr
  No. of mosquitoes infected/dissected: 32/44 and 36/46
[1]; [8]
  No. of mosquitoes infected/dissected: 0/55 and 3/45
  Parasitaemia/mm^3 Asexual: 28048 /mm^3 and 26832 /mm^3
[1]; [9]
  % infectivity: (0) %
  No. of mosquitoes infected/dissected: 0/40
  Parasitaemia/mm^3 Asexual: 15332 /mm^3 and 12140 /mm^3
  oocyst no. per gut (Mean ± SD): Nil
[1]; [10]
  No. of mosquitoes infected/dissected: 25/34 and 32/40
  Parasitaemia/mm^3 Asexual: 42394 /mm^3 and 36166 /mm^3
[1]; 3.16 mg/kg at 0 hr, feeding +5 hr
  No. of mosquitoes infected/dissected: 0/53 and 15/46
[1]; [11]
  % infectivity: (0) %
  No. of mosquitoes infected/dissected: 0/33 and 0/43
  Parasitaemia/mm^3 Asexual: 23112 /mm^3 and 21204 /mm^3
  Parasitaemia/mm^3 Gametocytes: 749 /mm^3 and 670 /mm^3
  oocyst no. per gut (Mean ± SD): Nil
[1]; [12]
  No. of mosquitoes infected/dissected: 37/51 and 20/47
  Parasitaemia/mm^3 Asexual: 29680 /mm^3 and 16824 /mm^3
  Parasitaemia/mm^3 Gametocytes: 1230 /mm^3 and 1026 /mm^3
[1]; 3.16 mg/kg, +24 hr
  gametocytocidal action: complete gametocytocidal action
[2]; Group I, 1.0 mg/kg, day 7
  increase of mean Met-Hb values over day 0: 3.7 fold
[2]; Group II, 3.0 mg/kg
  increase of Met-Hb over corresponding day 0 value: 10.5 fold
Normal erythrocytes
  concentration at which fall in GSH levels reached statistical significance: 10000 ng/mL
Normal erythrocytes; dose 1.00 μg/ml
  GSH (mg %) Mean ± SE: 43.50 ± 5.70 mg %
Normal erythrocytes; dose 5.00 μg/ml
  GSH (mg %) Mean ± SE: 39.00 ± 6.16 mg %
[3]
  decrease in GSH level compared to controls: statistically significant
Rodent malaria [4]
  blood schizontocidal activity: has blood schizontocidal activities
Rodent malaria [5]
  gametocytocidal activity: very potent gametocytocidal agent
Rodent malaria [6]
  direct sporontocidal activity: quite inactive
[7]
  radioactivity found in liver tissue: 45%
